Source: publication PMC12479633, “A Phase IIa, Single-Blind, Placebo-Controlled, Parallel-Group Study to Assess Safety, Tolerability, and Pharmacokinetics/Pharmacodynamics of Brensocatib in Adults with Cystic Fibrosis” (Clinical Pharmacokinetics, 2025)
Where two headings read alike, the source gives them in different places. Marks after values point to notes of the source that are not given here.

How the values were obtained:
proteinase 3 (PR3) [1] = assay: PR3 activity in sputum of adults with CF; format: in vivo, human
Description: (§1) If a participant experienced an intercurrent event, defined as use of antibiotics during an acute event that could influence NSP levels, the data were not included in the PD analysis. In assessing treatment-emergent adverse events (TEAEs), the “while-on-treatment” strategy was implemented, which encompassed the 28-day period following the final dose of study drug. With this strategy, data collected prior to the occurrence of the intercurrent event, that is, to discontinuation of brensocatib, were included in the analysis.
(§2) On the basis of the comparability of PK between participants with and without concomitant use of CFTR modulators, NSP activity (NE, CatG, PR3) in blood and sputum was analyzed using the combined data sets without the CFTR modulator stratum.

proteinase 3 (PR3) [2] = assay: Active PR3 in blood (white blood cell pellets) of adults with CF; format: in vivo, human; conditions: for PR3, median % reduction relative to baseline: Blood, day 29
Procedure: Blood PD samples were collected at screening; predose on days 1, 2, 14, 28, and 29; and at the follow-up visit (day 35). The samples were analyzed at an external service provider to determine the concentrations of active NE, PR3, and CatG in white blood cell pellets using validated enzymatic methods with quantification limits of 87.9 ng/mL for NE and PR3 and 70.3 ng/mL for CatG. The fit-for-purpose methods details were published internally and stored within Insmed’s document repository.
as §1

neutrophil elastase (NE) = test system: neutrophil elastase (NE); parameters: method as in earlier work; conditions: Healthy adults, cited from earlier work
cathepsin G (CatG) = assay: CatG activity in sputum of adults with CF; format: in vivo, human
Description: as §1, §2

[3] = test system: breast cancer resistance protein (BCRP); parameters: method as in PMID 35411669; conditions: cited from earlier work
P-glycoprotein (P-gp) = test system: P-glycoprotein (P-gp); parameters: method as in PMID 35411669; conditions: cited from earlier work
[4] = Plasma pharmacokinetics of brensocatib in adults with CF, once-daily oral dosing for 28 days (noncompartmental analysis); format: in vivo, human; conditions: for Ctrough / CL/F / Cmax / Rac(AUC0–24), accumulation ratio based on AUC0–24 / Rac(Cmax), accumulation ratio based on Cmax: mean (CV%); for least squares geometric mean ratio (LSGMR) in AUC0–24 (90% CI) / least squares geometric mean ratio (LSGMR) in Cmax (90% CI): day 28; for AUC0–24 / D, geometric mean / AUClast / D, geometric mean / Cmax / D, geometric mean: dose-normalized
Procedure: This was a phase IIa, single-blind, randomized, placebo-controlled trial with a parallel-group, multiple-dose design aimed at evaluating the PK, PD, safety, and tolerability of brensocatib in adults with CF (NCT05090904).
Participants were assigned to receive a once-daily dose of brensocatib (10 mg, 25 mg, or 40 mg) or placebo for 28 days.
Plasma PK samples were collected on days 1 (at predose and 0.5, 1, 2, 4, 6, 8, and 24 h postdose), 14 (at predose and 2 h postdose), and 28 (at predose and 0.5, 1, 2, 4, 6, 8, 24, and 168 h postdose). The concentration of brensocatib in the plasma samples was analyzed using a validated liquid chromatography with tandem mass spectrometry method at an external service provider with a quantification range of 0.25–150 ng/mL. The overall intra- and inter-batch precision and accuracy were −2.7 to 2.0% and −1.8 to 0.8%, respectively. The long-term stability was established in human plasma for 346 days at −70 °C. The validation method details were published internally and stored within Insmed’s internal document repository.
Descriptive statistics for continuous variables were calculated. Categorical variables were summarized by counts and by percentage of participants in the corresponding categories. No formal hypothesis was tested. Changes from baseline values were calculated and presented for both safety and efficacy data at each visit, including the percent change from baseline. PK parameters for brensocatib were assessed using noncompartmental analysis via Phoenix® WinNonlin® version 8.2 or later. SAS version 9.4 or higher was employed to prepare PK outputs.
Analysis of dose dependency for brensocatib Cmax, AUC0–24, and area under the concentration–time curve from time 0 to last measurable concentration (AUClast) after single-dose administration and at steady state (day 28) were performed using a power law model. Dose normalization of Cmax, AUC0–24, and AUClast was performed only when a linear and dose-dependent trend was observed.

[5] = Day 1, with CFTR modulator, n 17
[6] = Day 1, without CFTR modulator, n 7

- Ctrough ([4]; 10 mg QD, Day 1 column, presented for day 2, n = 8): 46.3 (92.2) ng/mL
- CL/F ([4]; 10 mg QD, Day 28, n = 8): 9.91 (28.6) L/h
- Cmax ([4]; 10 mg QD, Day 28, n = 8): 90.1 (31.0) ng/mL
- Ctrough ([4]; 10 mg QD, Day 28, n = 8): 27.2 (66.1) ng/mL
- Rac(AUC0–24), accumulation ratio based on AUC0–24 ([4]; 10 mg QD, Day 28, n = 8): 1.38 (32.2)
- Rac(Cmax), accumulation ratio based on Cmax ([4]; 10 mg QD, Day 28, n = 8): 1.42 (22.6)
- Cmax ([4]; 25 mg QD, Day 1, n = 8): 140 (24.1) ng/mL
- Ctrough ([4]; 25 mg QD, Day 1 column, presented for day 2, n = 8): 39.3 (30.4) ng/mL
- CL/F ([4]; 25 mg QD, Day 28, n = 7): 7.17 (30.1) L/h
- Rac(AUC0–24), accumulation ratio based on AUC0–24 ([4]; 25 mg QD, Day 28, n = 7): 2.26 (29.2)
- Rac(Cmax), accumulation ratio based on Cmax ([4]; 25 mg QD, Day 28, n = 7): 1.72 (38.9)
- Ctrough ([4]; 25 mg QD, Day 28, n = 8): 104 (43.6)^d ng/mL
- Ctrough ([4]; 40 mg QD, Day 1 column, presented for day 2, n = 8): 108 (88.6) ng/mL
- CL/F ([4]; 40 mg QD, Day 28, n = 8): 7.20 (42.8) L/h
- Ctrough ([4]; 40 mg QD, Day 28, n = 8): 162 (41.8) ng/mL
- Rac(AUC0–24), accumulation ratio based on AUC0–24 ([4]; 40 mg QD, Day 28, n = 8): 1.81 (37.4)
- Rac(Cmax), accumulation ratio based on Cmax ([4]; 40 mg QD, Day 28, n = 8): 1.43 (25.5)
- least squares geometric mean ratio (LSGMR) in AUC0–24 (90% CI) ([4]; 40-mg dose compared to 10 mg): 1.42 (1.04–1.92)
- least squares geometric mean ratio (LSGMR) in Cmax (90% CI) ([4]; 40-mg dose compared to 10 mg): 1.36 (1.02–1.82)
- least squares geometric mean ratio (LSGMR) in AUC0–24 (90% CI) ([4]; 40-mg dose compared to 25 mg): 1.02 (0.74–1.41)
- least squares geometric mean ratio (LSGMR) in Cmax (90% CI) ([4]; 40-mg dose compared to 25 mg): 1.25 (0.92–1.69)
- AUClast / D, ratio with/without CFTR modulator (90% CI) ([4]; Day 1, geometric mean ratio): 1.21 (0.91–1.60)
- AUC0–24 / D, geometric mean [4, 5]: 80.7 ng·h/mL/mg
- AUClast / D, geometric mean [4, 5]: 80.7 ng·h/mL/mg
- Cmax / D, geometric mean [4, 5]: 6.7 ng/mL/mg
- AUC0–24 / D, geometric mean [4, 6]: 66.8 ng·h/mL/mg
- AUClast / D, geometric mean [4, 6]: 66.8 ng·h/mL/mg
- Cmax / D, geometric mean [4, 6]: 6.3 ng/mL/mg
- AUC0–24 / D, ratio with/without CFTR modulator (90% CI) ([4]; Day 28, geometric mean ratio): 1.12 (0.82–1.52)
- AUC0–24 / D, geometric mean ([4]; Day 28, with CFTR modulator, n 16): 134.2 ng·h/mL/mg
SMILES: Cn1c(=O)oc2ccc(-c3ccc(C[C@@H](C#N)NC(=O)[C@@H]4CNCCCO4)cc3)cc21 [Brensocatib]
- PR3, median % reduction relative to baseline (proteinase 3 (PR3) [1]; 10 mg QD, day 29, n = 5): 59.1 (n = 5) %
- PR3, median % reduction relative to baseline (proteinase 3 (PR3) [1]; 25 mg QD, day 29, n = 3): 67.1 (n = 3) %
- PR3, median % reduction relative to baseline (proteinase 3 (PR3) [1]; 40 mg QD, day 29, n = 1): −17.0 (n = 1) %
- PR3, median % reduction relative to baseline (proteinase 3 (PR3) [2]; 10 mg QD, n = 6): 17.3 (n = 6) %
- PR3, median % reduction relative to baseline (proteinase 3 (PR3) [2]; 25 mg QD, n = 7): 40.8 (n = 7) %
- PR3, median % reduction relative to baseline (proteinase 3 (PR3) [2]; 40 mg QD, n = 7): 55.0 (n = 7) %
- median percent reduction of PR3 activity in blood (proteinase 3 (PR3) [2]; over the dose range of 10–40 mg QD): 17–55%
- Median % reduction of NE activity in the blood (neutrophil elastase (NE); 10 mg, n = 6): 34.8 (n = 6) %
- Median % reduction of NE activity in the blood (neutrophil elastase (NE); 25 mg, n = 7): 42.6 (n = 7) %
- Median % reduction of NE activity in the blood (neutrophil elastase (NE); 40 mg, n = 7): 55.1 (n = 7) %
- CatG, median % reduction relative to baseline (cathepsin G (CatG); 10 mg QD, day 29, n = 5): 51.3 (n = 5) %
- CatG, median % reduction relative to baseline (cathepsin G (CatG); 25 mg QD, day 29, n = 3): 0 (n = 3) %
- CatG, median % reduction relative to baseline (cathepsin G (CatG); 40 mg QD, day 29, n = 2): 0 (n = 2) %
- substrate status [3]: substrate
- substrate status (P-glycoprotein (P-gp)): substrate
